Assay results as given in PubChem BioAssay AID2252 (Southern Research Specialized Biocontainment Screening …, 2010).
Values joined by “and” are separate entries in the source; they are usually repeats but may differ in a detail not shown here. Identical values can stand only once.

tested on: THP-1 viability, CellTiter-Glo luminescence, 72 h; test: PubChem AID 2252

SMILES	EC50
COc1ccc(/C=N/NC(=O)c2ccc3c(c2)OCO3)cc1	48.7 µM
CCCCC(=O)NNC(=S)NC(=O)CCC	46 µM
CC(C)(C)c1ccc(OCCCCCCN2CCNCC2)cc1	13.8 µM
Cc1ccc(C(=O)Sc2cccccc2=O)cc1	2.27 µM
CN(C)CCCN1c2ccccc2Sc2ccc(Cl)cc21	5.64 µM and 12.4 µM
Cc1cc(C)c2sc(N(CCCN(C)C)C(=O)COc3ccc(Cl)cc3)nc2c1	17.7 µM
O=C(N/N=C/c1ccccc1O)C1SCCCS1	26.1 µM
O=C(Nc1csc(Cl)c1)c1ccccc1	< 0.1 µM
NC1=C(Br)C(=O)c2ccccc2C1=O	9 µM
Oc1[nH]c2ccc(Br)cc2c1N=NC(=S)N1CCOCC1	1.82 µM
C/C(=N\NC(=O)c1cccc(Br)c1)c1ccccn1	1.55 µM
CCc1ccc2c(c1)Sc1ccccc1CC2N1CCN(C)CC1 (stereo unspecified)	11.8 µM
Cc1ccc(Cn2c(=N)n(CC(O)COc3ccccc3)c3ccccc32)cc1 (stereo unspecified)	6.08 µM
O=C(CC(=O)c1ccccc1O)c1cccc(F)c1	26.2 µM
O=C(CCl)Nc1nccs1	14.4 µM
c1cc2c(cc1C1CCCCC1)c1c3n2CCN=C3CCC1	11.9 µM
Cc1cccc2sc(N(CCCN(C)C)C(=O)COc3ccc(Cl)cc3)nc12	24.9 µM
CN1CCN(CCCN2c3ccccc3Sc3ccc(Cl)cc32)CC1	14.7 µM and 10.2 µM
Cc1ccccc1C(=O)NNC(=S)NC(=O)COc1ccccc1	48.1 µM

SMILES	EC50
CCCN(CCC)CCNC(=O)C1CCN(Cc2nc(-c3ccc(Cl)cc3)oc2C)CC1	24.8 µM
C/C(=N\NC(=O)c1ccc(Cl)cc1)c1ccccn1	0.97 µM
Cn1c(SCC(=O)N/N=C/c2ccc([N+](=O)[O-])s2)nnc1-c1ccc(Cl)cc1	7.71 µM
O=C(N/N=C\C=C\c1ccc([N+](=O)[O-])o1)c1cccs1	34.8 µM
O=CN/N=C/c1c(O)ccc2ccccc12	5.1 µM
CC1CCC(C(C)C)C(OC(=O)C[n+]2cc(-c3ccc(Cl)cc3)n3c2CCC3)C1 (stereo unspecified)	16.5 µM
O=c1c2ccccc2nc(-c2cccc(Cl)c2)n1O	18.2 µM
CC12CN3CC(C)(CN(C1)C3c1ccc(Br)cc1O)C2 (stereo unspecified)	< 0.1 µM
O=C(/C=C/c1ccccc1Cl)c1ccccc(=O)c1O	12.9 µM
O=C(C[n+]1cc(-c2ccc(Cl)c(Cl)c2)n2c1CCC2)N1c2ccccc2Sc2ccccc21	10.3 µM
O=C(NNC(=S)NC(=O)c1ccccc1)c1ccc(O)cc1	14.3 µM
O=c1[nH]cc(F)c(=O)[nH]1	6.24 µM
Cc1cccc(Nc2nc(NCc3ccco3)c3ccccc3n2)c1	4.43 µM
COc1ccccc1Nc1nc(Cl)c(C=O)s1	21.1 µM
O=c1cc(-c2ccccc2)cc(-c2ccccc2)n1O	14 µM
NC[C@@H]1O[C@H](C23CC4CC(CC(C4)C2)C3)Cc2c1ccc(O)c2O	3.6 µM
O=c1[nH]c(=S)ccn1C1OC(CO)C(O)C1O (stereo unspecified)	16.3 µM
CCc1nnc(NS(=O)(=O)c2ccc(N=Cc3c(C)[nH]n(-c4ccc(C)cc4)c3=O)cc2)s1	29.3 µM
COc1ccc(CNCC(O)COc2ccc(C(C)(C)c3ccccc3)cc2)cc1 (stereo unspecified)	14.7 µM

SMILES	EC50
Cc1cc(OCCCCCN2CCCC2)ccc1Cl	48.7 µM
COc1ccc2nc(C)cc(Nc3ccc(N4CCOCC4)cc3)c2c1	45.9 µM
O=C(Nc1cccc(C2=NCCN2)c1)Nc1cccc(C2=NCCN2)c1	13.2 µM
O=C(CC(=O)c1cc(Cl)ccc1O)c1ccccc1	12.3 µM
CCn1ncc(/C=N\NC(=O)c2csc3ccccc23)c1C	19.1 µM
Cc1ccc(NC2=C(Cl)C(=O)OC2OC(=O)c2ccco2)c(C)c1 (stereo unspecified)	27.9 µM
CCc1c(C)nc2cc(-c3cc(OC)cc(OC)c3)nn2c1N1CCCC1	31 µM
CN(C)c1ccc2nc3ccc(=[N+](C)C)cc-3sc2c1	0.72 µM
Nc1nc(Nc2ccccc2)nc2ccccc12	3.32 µM
Clc1c(OCCCn2ccnc2)ccc2ccccc12	41.1 µM
Cc1nc(N)nc(N)c1CCCc1ccc(Cl)c(Cl)c1	5.79 µM
OC(c1cc(C(F)(F)F)nc2c(C(F)(F)F)cccc12)C1CCCCN1 (stereo unspecified)	7.61 µM
COC(=O)c1ccc(CSc2ccc3nnc(-c4ccc(OC)c(OC)c4)n3n2)o1	10.3 µM
Cc1ccc(NC(=O)CS(=O)CC(=O)Nc2ccccc2-c2ccc(C)o2)cc1 (stereo unspecified)	21.6 µM
C#CCOCCOCCOCCNc1nc(N2CCN(C(=O)CCCCCCCCCCNC(=O)Cn3cc(C[C@@H](C)O)nn3)CC2)nc(N2CCN(C(=O)CCCCCCCCCCNC(=O)[C@@H]([C@H](C)CC)n3cc(CCCCCN)nn3)CC2)n1	9.97 µM
C#CCOCCOCCOCCNc1nc(N2CCN(C(=O)[C@H]([C@@H](C)CC)n3cc([C@@H](N)Cc4ccc(O)cc4)nn3)CC2)nc(N2CCN(C(=O)[C@H](Cc3cc4ccccc4[nH]3)n3cc([C@@H](N)CC(C)C)nn3)CC2)n1	< 0.1 µM
O=C(C[n+]1cc(Br)cc2ccccc21)c1ccc(Cl)cc1	44 µM
O=[N+]([O-])c1ccc(O)c2ncccc12	5.99 µM
